Experimental findings from BindingDB's records for doi:10.1016/j.bmcl.2015.06.046 (Cubist Pharmaceuticals, 2015) are described below.

The nature of the experiment: Antagonist activity at CCR9 receptor (unknown origin) by serum chemotaxis assay.

pIC50: −log10 of the molar value.

For the compound `CC(C)(C)c1ccc(S(=O)(=O)Nc2ccc(Cl)cc2-c2nccnc2NCCO)cc1`, the pIC50 (as a rule, the negative decadic logarithm of the IC50, by convention in mol/L) is 6.77.
